Tests used:
L. monocytogenes [1] = assay: MIC on strains of Listeria (microplate dilution, CLSI); assay type: cell-based, Listeria monocytogenes
Source text: (§1) The strains tested are reference strains and cultures that are multi-antibiotic resistant; these are clinical strains that were isolated at the “Hospice de Lyon” and are as follows: • Staphylococcus S. aureus: ATCC® 29213™, ATCC 25923, • Methicillin-resistant S. aureus staphylococcus strains (Lac-Deleo USA 300), (MU 3), (HT 2004-0012), LY 199-0053, (HT 2002-0417), (HT 2006-1004), • Daptomycin-resistant S. aureus staphylococcus strains (ST 2015-0188) (ST 2014 1288), (ST 2015-0989). • Enterococci: E. faecalis (ATCC® 29212™, clinical strains of E. faecalis enterococcus, isolated from urine: strain 015206179901 (hereinafter 9901), strain 015205261801 (hereinafter 1801) • Enterococci: E. faecium (CIP 103510), clinical strains of E. faecium enterococcus: Van A 0151850763 (hereinafter Van A); strain 015 205731401 (hereinafter 1401), • Listeria: L. monocytogenes (CIP 103575), clinical strains isolated from blood culture (015189074801, LM1), strain isolated from cerebrospinal fluid (015170199001, LM2), clinical strain isolated from blood culture (015181840701, LM3).
(§2) The cultures studied, freshly isolated (after incubation on blood agar at 37° C. for 18 h), are taken up in sterile water (10 ml) until a 0.5 McFarland (Mc), i.e. 1 to 2×10^8 CFU (bacteria)/cm^3, suspension is obtained. The bacterial suspension was then diluted in order to obtain a final concentration of 1×10^6 CFU/cm^3.
(§3) Each well contains a final identical amount of Mueller-Hinton medium (rich medium enabling bacterial culture) and of bacteria of 0.5×10^6 CFU/cm^3.
The compounds of interest to be tested are dissolved in ethanol or DMSO at 25 mg/ml before being diluted, with the dilution being doubled each time, to different concentrations. On the multi-well plate, a first series was provided comprising the culture medium without the compound of interest to be tested. This corresponds to the growth control (control wells). These controls serve as a reference for comparing bacterial growth with those of the following wells comprising different concentrations of the compound of interest to be tested. The second series of wells comprises the parent solution of the compound of interest to be tested for a concentration in the well of 256 mg/l (7 mM). Each series of wells was diluted, with the dilution being doubled each time, until the last series for a final concentration of 0.25 mg/l (0.0007 mM). Each concentration is duplicated within the same plate. The plate is incubated for 18 h at 37° C. […]
(§4) The minimum inhibitory […] (MIC) are determined on Gram-positive bacterial strains according to the recommendations of the “Clinical Laboratory Standards Institute” (Clinical-Laboratory-Standards-Institute, 6th ed. Approved standard M100-S17. CLSI, Wayne, Pa., 2007). […]

E. faecium = assay: MIC on E. faecium enterococcal strains (microplate dilution, CLSI); assay type: cell-based, Enterococcus faecium
Source text: as §1, §2, §3
(§5) The compounds of interest to be tested are dissolved in ethanol or DMSO at 25 mg/ml before being diluted, with the dilution being doubled each time, to different concentrations. […]
as §4

S. aureus [2] = assay: MIC on S. aureus staphylococcal strains (microplate dilution, CLSI); assay type: cell-based, Staphylococcus aureus
Source text: as §1, §2, §3
The compounds of interest to be tested are dissolved in ethanol or DMSO at 25 mg/ml before being diluted, with the dilution being doubled each time, to different concentrations. On the multi-well plate, a first series was provided comprising the culture medium without the compound of interest to be tested. This corresponds to the growth control (control wells). These controls serve as a reference for comparing bacterial growth with those of the following wells comprising different concentrations of the compound of interest to be tested. The second series of wells comprises the parent solution of the compound of interest to be tested for a concentration in the well of 256 mg/l (7 mM). Each series of wells was diluted, with the dilution being doubled each time, until the last series for a final concentration of 0.25 mg/l (0.0007 mM). Each concentration is duplicated within the same plate. The plate is incubated for 18 h at 37° C. […] In the case of antibacterial activity, bacterial growth is inhibited which is reflected by the absence of appearance of cloudiness or bacterial pellet.
The minimum inhibitory […] (MIC) are determined on Gram-positive bacterial strains according to the recommendations of the “Clinical Laboratory Standards Institute” (Clinical-Laboratory-Standards-Institute, 6th ed. Approved standard M100-S17. CLSI, Wayne, Pa., 2007).
as §2, with “i.e.” for “i.e. 1”, “10^8” for “2×10^8”, “10^6” for “1×10^6”

E. faecalis = assay: MIC on E. faecalis enterococcal strains (microplate dilution, CLSI); assay type: cell-based, Enterococcus faecalis
Source text: as §1, §2, §3, §5, §4

S. aureus [3] = conditions: literature, in words; cited from earlier work
L. monocytogenes [4] = conditions: literature, in words; cited from earlier work
esterases = conditions: cited from earlier work

Compound: CCCCCCCCCCCC1OCC2O[C@H](OC)C(O)C(O)[C@H]2O1 (stereo partly drawn) [compound 1d, Methyl 4,6-O-dodecylidene-α-D-galactopyranoside]
- melting point: 115 °C

Compound: 3-O-Dodecyl-1,4-D-sorbitan, 5-O-dodecyl-1,4-D-sorbitan and 6-O-dodecyl-1,4-D-sorbitan [reference compound]
- Minimum inhibitory concentration (MIC) (L. monocytogenes [1]; L. monocytogenes CIP 103575): 32 µg/mL
- Minimum inhibitory concentration (MIC) (L. monocytogenes [1]; L. monocytogenes clinical strain LM1 (blood culture)): 16 µg/mL
- Minimum inhibitory concentration (MIC) (L. monocytogenes [1]; L. monocytogenes clinical strain LM2 (cerebrospinal fluid)): 32 µg/mL
- Minimum inhibitory concentration (MIC) (L. monocytogenes [1]; L. monocytogenes clinical strain LM3 (blood culture)): 32 µg/mL
- Minimum inhibitory concentration (MIC) (E. faecium; E. faecium CIP 103510): 16 µg/mL
- Minimum inhibitory concentration (MIC) (E. faecium; E. faecium clinical strain 1401): 8 µg/mL
- Minimum inhibitory concentration (MIC) (E. faecium; E. faecium clinical strain Van A): 16 µg/mL
- Minimum inhibitory concentration (MIC) (S. aureus [2]; S. aureus ATCC 25923, reference strain): 32 µg/mL
- Minimum inhibitory concentration (MIC) (S. aureus [2]; S. aureus ATCC 29213, reference strain): 32 µg/mL
- Minimum inhibitory concentration (MIC) (S. aureus [2]; daptomycin-resistant S. aureus ST 2014 1288): 64 µg/mL
- Minimum inhibitory concentration (MIC) (S. aureus [2]; daptomycin-resistant S. aureus ST 2015-0188): 64 µg/mL
- Minimum inhibitory concentration (MIC) (S. aureus [2]; daptomycin-resistant S. aureus ST 2015-0989): 256 µg/mL
- Minimum inhibitory concentration (MIC) (S. aureus [2]; methicillin-resistant S. aureus HT 2002-0417): 32 µg/mL
- Minimum inhibitory concentration (MIC) (S. aureus [2]; methicillin-resistant S. aureus HT 2004-0012): 32 µg/mL
- Minimum inhibitory concentration (MIC) (S. aureus [2]; methicillin-resistant S. aureus HT 2006-1004): 32 µg/mL
- Minimum inhibitory concentration (MIC) (S. aureus [2]; methicillin-resistant S. aureus LY 199-0053): 32 µg/mL
- Minimum inhibitory concentration (MIC) (S. aureus [2]; methicillin-resistant S. aureus Lac-Deleo USA 300): 32 µg/mL
- Minimum inhibitory concentration (MIC) (S. aureus [2]; methicillin-resistant S. aureus MU 3): 64 µg/mL
- Minimum inhibitory concentration (MIC) (E. faecalis; E. faecalis ATCC 29212): 8 µg/mL
- Minimum inhibitory concentration (MIC) (E. faecalis; E. faecalis clinical strain 1801 (urine)): 8 µg/mL
- Minimum inhibitory concentration (MIC) (E. faecalis; E. faecalis clinical strain 9901 (urine)): 16 µg/mL

Compound: Dodecanoyl sucrose
- inhibition of the growth of S. aureus (S. aureus [3]): weakly inhibiting the growth
- activity against L. monocytogenes (L. monocytogenes [4]): particularly active

Compound: CCCCCCCCCCCC(=O)OCC(O)CO (stereo not shown) [monolaurin]
- degradation / half-life (ester function sensitive to esterases) (esterases): quickly degraded
